# Data: EPA's ToxValDB 9.5 (doi:10.2903/j.efsa.2014.3540)
# Experiments:
# Landoltia sp. = details: acute; duration: 7 days; growth
# Tagia sp. = details: acute; duration: 14 days; mortality
# Apis mellifera = details: acute, duration: 48 hours, mortality
# Colinus virginianus = details: for LD50: acute, oral, mortality
# Oryctolagus sp. = details: developmental; development
# Daphnia magna = details: chronic/long-term; duration: 21 days; reproduction
# Oncorhynchus mykiss = details: chronic/long-term; duration: 96 days; mortality
# Rattus norvegicus = details: for NOAEL: chronic
structure (smiles),measurement,setting,value
Cc1c(C(=O)c2c[nH]n(C)c2=O)ccc(S(C)(=O)=O)c1C1=NOCC1 [Topramezone],NOEC,Landoltia sp.,0.001 mg/L
same,LC50,Tagia sp.,> 1000 mg/kg
same,LD50,Apis mellifera; dermal,> 100 µg/piece
same,LD50,"Apis mellifera; oral, unspecified",> 72 µg/piece
same,LD50,Colinus virginianus; diet,> 1080 mg/kg-day
same,LD50,Colinus virginianus,> 2000 mg/kg-day
same,NOEL,"Colinus virginianus; reproduction developmental, reproduction",19.4 mg/kg-day
same,NOAEL,Oryctolagus sp.,0.5 mg/kg-day
same,NOEC,Daphnia magna,50 mg/L
same,NOAEC,Oncorhynchus mykiss,3.2 mg/L
same,LD50,"Rattus norvegicus; acute, oral, mortality",> 2000 mg/kg-day
same,NOAEL,Rattus norvegicus; F,0.4 mg/kg-day
same,NOAEL,Rattus norvegicus; M,0.3 mg/kg-day
same,NOAEL,"Rattus norvegicus; duration: 2 years, F, histopathology: neoplastic",0.4 mg/kg-day
